In patent publication US10232013B2, “Use of an antimicrobial peptide TP4 in treating a cancer” (Academia Sinica, priority 2016, dated 2019):
Marks after values point to notes of the source that are not given here. Where no end group is shown, it is not given here.

Test system: MB453 (MDA-MB453) cells
Assay: MTS cell viability assay, MB453
Assay type: cell-based, human
Details: mean±SD
Description: Cell-lines used in this study were purchased from the Bioresource Collection and Research Center (BCRC) in and the cells were cultured by the standard cell culture procedures and conditions provided by the BCRC. MB231 (BCRC 60425), MB453 (BCRC 60429), and HDF cells were cultured as previously described by Ting et al. MCF7 […] cells were maintained in α-MEM medium (ThermoFisher Scientific) supplemented with 2 mM L-glutamine, 10% FBS, 0.1 mM non-essential amino acids, 1 mM sodium pyruvate, and antibiotics (100 U mL^−1 penicillin G and […] streptomycin). M10 (BCRC 60197) cells were maintained in α-MEM medium (ThermoFisher Scientific) supplemented with 10% FBS and antibiotics. With the exception of MB231 and MB453, all cells were cultured at 37° C. with 5% CO2. For the cell viability and transfection assay, 1×10^4 cells [5×10^3 M10 cells were seeded and cultured for 48 h to allow the cells sufficient time for attachment] were seeded into the wells of a 96-well plate and cultured overnight. For the transfection assays, cells were transfected with 0.1-0.4 μg FOSB/FOSAB expression plasmid (Origene Technology Inc.) and cell viability was determined after 72 h. The transfection efficiencies (number of cells expressing eGFP/all cells) of the MB231 transfection assays were determined by observing ten randomly selected fields (from three independent transfections) of control GFP plasmid transfections under an inverted microscope (Olympus, IX71) coupled to a digital camera (Olympus DP80), using an […] (LCPlanFI 20×/0.40 Ph1). CellSens standard software (Olympus) was used for image acquisition. During the drug treatment assay, inhibitors (PD98059, BAPTA-AM, and AlP II) were added 30 min prior to TP4, and cell viability was determined at indicated time-points. Transfection was performed using LipofectAMINE™ 3000 (ThermoFisher Scientific), according to the manufacturer's recommendations. Knock-down cells were generated by transducing MB231 cells with pre-synthesized FOSB (or control) shRNA lentiviral particles (Santa Cruz Biotechnology), and selecting puromycin-resistant cells in accordance with the manufacturer's standard protocol. MB231 or M10 cells stably expressing eGFP or mOrange2 were generated through transfection with peGFP-puromycin or pmOrange2-C1 plasmid, followed by puromycin (5 μg mL^−1) or G418 (500 μg mL^−1) selection as described above.
Cell viability was quantitatively analyzed using the CellTiter-Glo® Luminescent Cell Viability Assay kit (ATP assay) and CellTiter 96® AQueous Non-Radioactive Cell Proliferation Assay kit (MTS assay) (Promega) in accordance with the manufacturer's protocol. For MTS assay, 1×10^4 cells were seeded into the wells of a 96-well plate and cultured overnight [5×10^3 M10 cells were seeded and cultured for 48 h to enable sufficient well attachment]. Cells were subsequently treated with different doses of TP4 (2.5-20 μg mL^−1) and harvested at the indicated time-points (3-24 h). Reaction mixtures (20 μL: MTS+PMS, using a ratio 20:1) were directly added to the cells, and the plates were incubated for 3 h at 37° C. Absorbance at 490 nm is directly proportional to the number of living cells in culture and was measured using a photometer (SpectraMax® i3, Molecular Devices). ATP assay was performed as previously described by Ting et al. Lactate dehydrogenase (LDH) assays were performed by quantitatively measuring cell lysis with a Cytotoxicity Detection Kit^PLUS (LDH) (Roche) in accordance with the manufacturer's protocol. The LDH standard was purchased from Cayman Chemical. Briefly, 1×10^4 cells were seeded into the wells of a 96-well plate and cultured overnight. Culture media were replaced with fresh medium containing 1% FBS and cells were subsequently treated with different doses of TP4 (2.5-20 μg mL^−1). Supernatants were harvested at 3 h. […]

FIHHIIGGLFSAGKAIHRLIRRRRR [TP4, tilapia piscidin 4]
Cellular toxicity (cell viability), MTS assay (MB453, TP4 2.5 μg/mL, 3 h): 93.75 ± 4.33^d | Cellular toxicity (cell viability), MTS assay (MB453, TP4 2.5 μg/mL, 6 h): 86.51 ± 4.19^d | Cellular toxicity (cell viability), MTS assay (MB453, TP4 2.5 μg/mL, 12 h): 92.21 ± 6.61^d | Cellular toxicity (cell viability), MTS assay (MB453, TP4 2.5 μg/mL, 24 h): 87.84 ± 4.75^d | Cellular toxicity (cell viability), MTS assay (MB453, TP4 5.0 μg/mL, 3 h): 91.50 ± 4.32^d | Cellular toxicity (cell viability), MTS assay (MB453, TP4 5.0 μg/mL, 6 h): 76.46 ± 6.25^d | Cellular toxicity (cell viability), MTS assay (MB453, TP4 5.0 μg/mL, 12 h): 80.18 ± 5.41^d | Cellular toxicity (cell viability), MTS assay (MB453, TP4 5.0 μg/mL, 24 h): 87.00 ± 4.16^d | Cellular toxicity (cell viability), MTS assay (MB453, TP4 10.0 μg/mL, 3 h): 77.82 ± 4.33^d | Cellular toxicity (cell viability), MTS assay (MB453, TP4 10.0 μg/mL, 6 h): 58.58 ± 5.43^d | Cellular toxicity (cell viability), MTS assay (MB453, TP4 10.0 μg/mL, 12 h): 62.25 ± 10.74^d | Cellular toxicity (cell viability), MTS assay (MB453, TP4 10.0 μg/mL, 24 h): 77.24 ± 4.07^d | Cellular toxicity (cell viability), MTS assay (MB453, TP4 15.0 μg/mL, 3 h): 53.12 ± 10.90^d | Cellular toxicity (cell viability), MTS assay (MB453, TP4 15.0 μg/mL, 6 h): 27.09 ± 2.54^d | Cellular toxicity (cell viability), MTS assay (MB453, TP4 15.0 μg/mL, 12 h): 27.32 ± 5.51^d | Cellular toxicity (cell viability), MTS assay (MB453, TP4 15.0 μg/mL, 24 h): 58.93 ± 2.80^d | Cellular toxicity (cell viability), MTS assay (MB453, TP4 20.0 μg/mL, 3 h): 36.33 ± 5067^d | Cellular toxicity (cell viability), MTS assay (MB453, TP4 20.0 μg/mL, 6 h): 18.25 ± 1.80^d | Cellular toxicity (cell viability), MTS assay (MB453, TP4 20.0 μg/mL, 12 h): 15.02 ± 4.28^d | Cellular toxicity (cell viability), MTS assay (MB453, TP4 20.0 μg/mL, 24 h): 40.15 ± 2.66^d
